US20200246314A1, “DYSLIPIDEMIA THERAPEUTIC AGENT” (KOWA COMPANY, LTD., priority 2014, published 2020)

System: LDL-C in plasma
Experiment: Effect on LDL-C of rat in combination use of compound A and niacin
Type: in vivo
Details: male SD rats, oral once per day for one week, blood 4 h after final administration; single agent: compound A 0.1 mg/kg or nicotinic acid 100 mg/kg
Source text: Male rats (6-week-old, Jcl:SD, CLEA Japan, Inc.) were used for an experiment. Blood was collected from the jugular vein under satiation. The rats were divided into four groups (N=8) based on TG and TC in plasma and a body weight. For one week from the next day, each of a solvent (0.5% methylcellulose aqueous solution: MC), compound A alone, nicotinic acid alone, and combination of compound A and nicotinic acid was orally administered once per day. Four hours after final administration of the pharmaceutical agent, blood was collected under isoflurane anesthesia, and LDL-C in plasma was measured using high performance liquid chromatography by a method of Usui et al (Usui S et al. Clin Chem., 46, 63-72, 2000). Group 1: Control Group 2: 0.1 mg/kg of compound A […] Group 4: 0.1 mg/kg of compound A and 100 mg/kg of nicotinic acid Results were presented by an average value±standard deviation. Comparison between the control group and each of the pharmaceutical agent administration groups was performed by a multiple comparison test of Dunnett, and a risk rate of less than 5% was determined to have a significant difference.

Row | Structure (SMILES) | effect on LDL-C in plasma
1 | CC[C@@H](Oc1cccc(CN(CCCOc2ccc(OC)cc2)c2nc3ccccc3o2)c1)C(=O)O [Compound A, (R)-2-[3-[[N-(benzoxazol-2-yl)-N-3-(4-methoxyphenoxy)propyl]aminomethyl]phenoxy] butyric acid] | did not exhibit a clear effect on LDL-C
2 | O=C(O)c1cccnc1 [nicotinic acid, pyridine-3-carboxylic acid] | did not exhibit a clear effect on LDL-C
